Measurements from patent publication US10238688B2, “Combination therapies for bladder cancer” (GENEDIA BIOTECH CO. LTD., priority 2015, dated 2019).

Tests used:
Assay type in all cases: cell-based, human
5637 = assay: MTT cell survival / IC50, 5637 cells; settings: for Cell survival (%) / Single drug 4X Cell Survival (%): 5637; for Cell survival (%): Table S3, ng/ml: Pi 40, Pa 160, EH 250, Ci 1500, Mi 200, 1=Ci/Mi, 2=EH/Ci/Mi, 3=Pa/Ci/Mi, 4=Pi/Ci/Mi; for Single drug 4X Cell Survival (%): ng/ml: EH 1000, Ci 6000, Mi 800, Pi 160, Pa 640, Ge 20, EH/Ci/Mi regimen; for Cell survival 72 hours / ACS (%): 5637 cells; for Cell survival 72 hours: Table 4 (A); for ACS (%): Table 4 (B)
Description: (§1) The clinical grade of the chemotherapeutics (NCI Dictionary of Cancer Terms) was provided by the First Affiliated Hospital of Harbin Medical University: Pirarubicin (Pi, Wanle, Shenzhen), Paclitaxel (Pa, Taiji, Sichuan), Adriamycin (Ad, Pfizer, Jiangsu), Epirubicin Hydrochloride (EH, Haizheng, Zhejiang), Hydroxycamptothecin (Hy, Lishizhen, Hubei), Cisplatin (Ci, Haosen, Jiangsu), Gemcitabine (Ge, Haosen, Jiangsu) and Mitomycin (Mi, Haizheng, Zhejiang). The drug induced cell death was determined by a thiazolyl […] (MTT, 490 nm reading) based cell proliferation assay in the cultured cells following treatment by various concentrations of drugs for 72 hours. The relative chemoresistance to each drug of all cell lines was calculated with the lowest IC50 as a reference. The overall chemoresistance of each cell line was described as “chemoresistance index”, the numerator of the total relative IC50 to all the drugs over the number of drugs to rank the overall resistance state of each cell line to the six chemotherapeutics collectively.
(§2) The relative IC50 (fold) of each drug of all nine cell lines was normalized to the lowest IC50 in the most sensitive cell line (FIG. 2G), to describe the single drug resistance of cell lines. The overall chemoresistance of each cell line, a “chemoresistance index” (the numerator of the total relative IC50 over the number of drugs) (FIG. 2G) were calculated to rank the overall resistance state of each cell line to this six chemotherapeutics.
(§3) Twenty six-drug combinations at the indicated doses were initially generated through a random number generator (using MATLAB MathWorks©, Natick, Mass., U.S.) (The upper half of Table 1). The cell survival (% over the not drug control) of treated cells was determined and then used for a calculation of the average cumulative cell survival (%, ACS: the sum of cell survival (%) per combination divided by the number of cell lines tested). ACS<30% was used to separate the effective from the not-effective combinations.

J-82 = assay: MTT cell survival / IC50, J-82 cells; settings: J82; Table S3; ng/ml: Pi 40, Pa 160, EH 250, Ci 1500, Mi 200; 1=Ci/Mi, 2=EH/Ci/Mi, 3=Pa/Ci/Mi, 4=Pi/Ci/Mi
Description: as §1, §2, §3

ER Stress pathway = assay: Cignal Finder dual-luciferase pathway reporter, ER Stress; settings: for Relative activity, ER Stress reporter: luc/Renluc relative to negative control reporter, single drug at 4 folds vs EH/Ci/Mi combination
Description: (§4) The pathway analysis was performed with Qiagen's Cignal Finder Pathway Reporter Array systems according to the manufacturer's instructions. The pathway-focused dual-luciferase reporter construct was a mixture of an inducible transcription factor responsive firefly luciferase reporter and constitutively expressing renilla construct. Transcriptional response element (TRE) sequence response elements to each specific transcriptional factor triggered by the different signaling pathways are positioned before the TATA box of firefly luciferase reporter gene. The extent of activity of the reporter reflects the level of activity of the particular signaling pathway. CMV controlled renilla expression vector is co-transfected into the cell as an internal control. Non-inducible reporter construct that lacks the transcriptional factor binding sequence and could not be induced by any transcription factors is used as a negative control. Cells transfected with CMV directed firefly luciferase reporter gene serve as a positive control. Briefly, cells seeded in 6-well plates were transfected with Cignal finder pathway arrays according to the manufacturer's instructions (Qiagen). Then cells were seeded onto 96-well plates. Ci (6000 ng/mL), Mi (800 ng/mL), or EH (1000 ng/mL) and Ci/Mi/EH combination (Ci, 1500 ng/mL, Mi, 800 ng/mL and EH, 1000 ng/m L) were then added to the cells 24 h post-transfection. After 6 h of incubation with the different drugs at 37° C., cells were lysed and a dual luciferase assay (for firefly and renilla luciferase) was performed using a PromegaGloMax 20/20 illuminometer. The firefly luciferase activities were normalized over the renilla luciferase activities after background activity determined by luciferase activities of negative controls was subtracted. A triple test of cell survival under these drug doses was also performed by MTT assay following 18 h incubation at 37° C. […]

Wnt pathway = assay: Cignal Finder dual-luciferase pathway reporter, Wnt; set-up: key to Relative activity, Wnt reporter: firefly/renilla ratio, background (negative control) subtracted; settings: for Relative activity, Wnt reporter: luc/Renluc relative to negative control reporter, single drug at 4 folds vs EH/Ci/Mi combination;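 on digitalized pathway activity, Wnt: code −1 means repressed below 0.5-fold of 5637 cells or no-drug control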
Description: as §4

Notch pathway = assay: Cignal Finder dual-luciferase pathway reporter, Notch; set-up: key to Relative activity, Notch reporter: firefly/renilla ratio, background (negative control) subtracted; settings: for Relative activity, Notch reporter: luc/Renluc relative to negative control reporter, single drug at 4 folds vs EH/Ci/Mi combination;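 on digitalized pathway activity, Notch: code −1 means repressed below 0.5-fold of 5637 cells or no-drug control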
Description: as §4

N.N.[Cl][Pt][Cl] [Ci, (SP-4-2)-diamminedichloroplatinum(II)]
Cell survival (%) 5637: 20.32% | Single drug 4X Cell Survival (%) 5637: 1.49% | Cell survival 72 hours 5637: 2.23% | ACS (%) 5637: 2.23% | Cell survival (%) (J-82): 15.42% | relative drug trigged pathway activity over the no-drug level, ER Stress (ER Stress pathway; 5637 cells): 1.82 fold | Relative activity, ER Stress reporter (ER Stress pathway; 5637 cells): 47.45 | digitalized pathway activity, ER Stress (ER Stress pathway; Biu87 cells): 0 (null (0) if neither of the above holds) | relative drug trigged pathway activity over the no-drug level, ER Stress (ER Stress pathway; Biu87 cells): 0.83 fold | Relative activity, ER Stress reporter (ER Stress pathway; Biu87 cells): 18.10 | digitalized pathway activity, ER Stress (ER Stress pathway; H-bc cells): 0 (null (0) if neither of the above holds) | relative drug trigged pathway activity over the no-drug level, ER Stress (ER Stress pathway; H-bc cells): 0.82 fold | Relative activity, ER Stress reporter (ER Stress pathway; H-bc cells): 101.61 | digitalized pathway activity, ER Stress (ER Stress pathway; SV-HUC-1 cells): 0 (null (0) if neither of the above holds) | relative drug trigged pathway activity over the no-drug level, ER Stress (ER Stress pathway; SV-HUC-1 cells): 1.12 fold | Relative activity, ER Stress reporter (ER Stress pathway; SV-HUC-1 cells): 115.00 | digitalized pathway activity, ER Stress (ER Stress pathway; UM-UC-3 cells): 0 (null (0) if neither of the above holds) | Relative activity, ER Stress reporter (ER Stress pathway; UM-UC-3 cells): 67.50 | relative drug trigged pathway activity over the no-drug level, ER Stress (ER Stress pathway; Um-Uc-3 cells): 0.83 fold | digitalized pathway activity, Wnt (Wnt pathway; 5637 cells): 0 (null (0) if neither of the above holds) | relative drug trigged pathway activity over the no-drug level, Wnt (Wnt pathway; 5637 cells): 1.14 fold | Relative activity, Wnt reporter (Wnt pathway; 5637 cells): 1.00 | relative drug trigged pathway activity over the no-drug level, Wnt (Wnt pathway; Biu87 cells): 0.41 fold | Relative activity, Wnt reporter (Wnt pathway; Biu87 cells): 0.69 | digitalized pathway activity, Wnt (Wnt pathway; H-bc cells): 0 (null (0) if neither of the above holds) | relative drug trigged pathway activity over the no-drug level, Wnt (Wnt pathway; H-bc cells): 0.78 fold | Relative activity, Wnt reporter (Wnt pathway; H-bc cells): 3.14 | digitalized pathway activity, Wnt (Wnt pathway; SV-HUC-1 cells): 0 (null (0) if neither of the above holds) | relative drug trigged pathway activity over the no-drug level, Wnt (Wnt pathway; SV-HUC-1 cells): 1.25 fold | Relative activity, Wnt reporter (Wnt pathway; SV-HUC-1 cells): 1.55 | Relative activity, Wnt reporter (Wnt pathway; UM-UC-3 cells): 1.73 | relative drug trigged pathway activity over the no-drug level, Wnt (Wnt pathway; Um-Uc-3 cells): 0.48 fold | digitalized pathway activity, Notch (Notch pathway; 5637 cells): 0 (null (0) if neither of the above holds) | relative drug trigged pathway activity over the no-drug level, Notch (Notch pathway; 5637 cells): 1.39 fold | Relative activity, Notch reporter (Notch pathway; 5637 cells): 1.41 | relative drug trigged pathway activity over the no-drug level, Notch (Notch pathway; Biu87 cells): 0.5 fold | Relative activity, Notch reporter (Notch pathway; Biu87 cells): 2.23 | relative drug trigged pathway activity over the no-drug level, Notch (Notch pathway; H-bc cells): 0.31 fold | Relative activity, Notch reporter (Notch pathway; H-bc cells): 1.60 | digitalized pathway activity, Notch (Notch pathway; SV-HUC-1 cells): 0 (null (0) if neither of the above holds) | relative drug trigged pathway activity over the no-drug level, Notch (Notch pathway; SV-HUC-1 cells): 1.44 fold | Relative activity, Notch reporter (Notch pathway; SV-HUC-1 cells): 6.20 | digitalized pathway activity, Notch (Notch pathway; UM-UC-3 cells): 0 (null (0) if neither of the above holds) | Relative activity, Notch reporter (Notch pathway; UM-UC-3 cells): 4.99 | relative drug trigged pathway activity over the no-drug level, Notch (Notch pathway; Um-Uc-3 cells): 1.01 fold

COc1cccc2c1C(=O)c1c(O)c3c(c(O)c1C2=O)C[C@@](O)(C(=O)CO)C[C@@H]3[C@@H]1C[C@H](N)[C@@H](O)[C@H](C)O1 [EH, (8R,10S)-10-((2S,4S,5R,6S)-4-amino-5-hydroxy-6-methyltetrahydro-2H-pyran-2-yl)-6,8,11-trihydroxy-8-(2-hydroxyacetyl)-1-methoxy-7,8,9,10-tetrahydrotetracene-5,12-dione]
Cell survival (%) 5637: 14.75% | Single drug 4X Cell Survival (%) 5637: 2.23% | Cell survival 72 hours 5637: 2.23% | ACS (%) 5637: 2.23% | Cell survival (%) (J-82): 45.03% | relative drug trigged pathway activity over the no-drug level, ER Stress (ER Stress pathway; 5637 cells): 3.26 fold | Relative activity, ER Stress reporter (ER Stress pathway; 5637 cells): 84.76 | relative drug trigged pathway activity over the no-drug level, ER Stress (ER Stress pathway; Biu87 cells): 1.66 fold | Relative activity, ER Stress reporter (ER Stress pathway; Biu87 cells): 36.36 | digitalized pathway activity, ER Stress (ER Stress pathway; H-bc cells): 0 (null (0) if neither of the above holds) | relative drug trigged pathway activity over the no-drug level, ER Stress (ER Stress pathway; H-bc cells): 1.38 fold | Relative activity, ER Stress reporter (ER Stress pathway; H-bc cells): 28.61 | relative drug trigged pathway activity over the no-drug level, ER Stress (ER Stress pathway; SV-HUC-1 cells): 2.93 fold | Relative activity, ER Stress reporter (ER Stress pathway; SV-HUC-1 cells): 300.00 | digitalized pathway activity, ER Stress (ER Stress pathway; UM-UC-3 cells): 0 (null (0) if neither of the above holds) | Relative activity, ER Stress reporter (ER Stress pathway; UM-UC-3 cells): 120.98 | relative drug trigged pathway activity over the no-drug level, ER Stress (ER Stress pathway; Um-Uc-3 cells): 1.48 fold | digitalized pathway activity, Wnt (Wnt pathway; 5637 cells): 0 (null (0) if neither of the above holds) | relative drug trigged pathway activity over the no-drug level, Wnt (Wnt pathway; 5637 cells): 1.19 fold | Relative activity, Wnt reporter (Wnt pathway; 5637 cells): 1.04 | digitalized pathway activity, Wnt (Wnt pathway; Biu87 cells): 0 (null (0) if neither of the above holds) | relative drug trigged pathway activity over the no-drug level, Wnt (Wnt pathway; Biu87 cells): 0.95 fold | Relative activity, Wnt reporter (Wnt pathway; Biu87 cells): 1.57 | digitalized pathway activity, Wnt (Wnt pathway; H-bc cells): 0 (null (0) if neither of the above holds) | relative drug trigged pathway activity over the no-drug level, Wnt (Wnt pathway; H-bc cells): 1.03 fold | Relative activity, Wnt reporter (Wnt pathway; H-bc cells): 1.10 | digitalized pathway activity, Wnt (Wnt pathway; SV-HUC-1 cells): 0 (null (0) if neither of the above holds) | relative drug trigged pathway activity over the no-drug level, Wnt (Wnt pathway; SV-HUC-1 cells): 1.05 fold | Relative activity, Wnt reporter (Wnt pathway; SV-HUC-1 cells): 1.30 | digitalized pathway activity, Wnt (Wnt pathway; UM-UC-3 cells): 0 (null (0) if neither of the above holds) | Relative activity, Wnt reporter (Wnt pathway; UM-UC-3 cells): 4.12 | relative drug trigged pathway activity over the no-drug level, Wnt (Wnt pathway; Um-Uc-3 cells): 1.15 fold | relative drug trigged pathway activity over the no-drug level, Notch (Notch pathway; 5637 cells): 1.92 fold | Relative activity, Notch reporter (Notch pathway; 5637 cells): 1.95 | digitalized pathway activity, Notch (Notch pathway; Biu87 cells): 0 (null (0) if neither of the above holds) | relative drug trigged pathway activity over the no-drug level, Notch (Notch pathway; Biu87 cells): 1.34 fold | Relative activity, Notch reporter (Notch pathway; Biu87 cells): 5.94 | relative drug trigged pathway activity over the no-drug level, Notch (Notch pathway; H-bc cells): 1.6 fold | Relative activity, Notch reporter (Notch pathway; H-bc cells): 2.20 | digitalized pathway activity, Notch (Notch pathway; SV-HUC-1 cells): 0 (null (0) if neither of the above holds) | relative drug trigged pathway activity over the no-drug level, Notch (Notch pathway; SV-HUC-1 cells): 1.3 fold | Relative activity, Notch reporter (Notch pathway; SV-HUC-1 cells): 5.60 | Relative activity, Notch reporter (Notch pathway; UM-UC-3 cells): 10.16 | relative drug trigged pathway activity over the no-drug level, Notch (Notch pathway; Um-Uc-3 cells): 2.05 fold
